One assay relates to HEK 293 cells. In words: MTT cell viability, HEK 293. It counts as cell-based. The conditions noted are these: Homo sapiens, HEK293; HEK-293, MTT test. As to the method: (§1) The effect of the hydroxamic acids on the viability of cells obtained from human embryonic kidneys, HEK 293, as well as the native form of human neuroblastoma, SH-SY5Y, was evaluated in the MTT test. Using a multifunctional flatbed analyzer, Cytation™3 (BioTek Instruments, Inc., Winooski, VT, USA), the optical density was determined at a wavelength of 530 nm. Based on the dose-dependent curves, the concentration values leading to 50% inhibition of cell population growth (IC50) were calculated.
(§2) Due to the fact that most compounds of the class of hydroxamic acids have high cytotoxic activity and are mainly used as anticancer drugs, their use as neuroprotective drugs is limited. Since the goal of our work was to search for agents for the pharmacological correction of neurodegenerative diseases, a necessary part of the biological activity study of the synthesized hydroxamic acids was to determine their effect on the survival of cell cultures. In our work, we used neuron-like neuroblastoma cells SH-SY5Y and a healthy cell line isolated from the human embryonic kidney, HEK 293.

The nature of assay [1]: DPPH test of antiradical activity. The conditions noted are these: substances at 100 μM, mean ± SEM. As for the experimental part:
The DPPH test was used to examine antiradical activity based on the ability of a stable chromogen radical of 2,2-diphenyl-1-picrylhydrazyl (DPPH) to remove a hydrogen atom, which is accompanied by a change in the absorption maximum in the electronic absorption spectra. The amount of reduced DPPH was measured using a Cytation ™ 3 multifunctional plate analyzer (BioTek Instruments, Inc., Winooski, VT, USA) at a wavelength of 517 nm.
The antiradical activity of the test compounds was evaluated by the DPPH test, based on the ability of antioxidants to donate an electron to the stable chromogen radical DPPH, converting it into a nonradical form and neutralizing its activity. […] The chromogenic free radical DPPH used in this test has a large size, and substances even with a similar chemical structure may have different antiradical properties due to spatially difficult access.

Another assay concerns SH-SY5Y cells. In words: MTT cell viability, SH-SY5Y. It counts as cell-based. The note with it: Homo sapiens, MTT test. As for the experimental part:
as §1, §2
For orientation: Tetrazolium assays rely on reduction of a dye to a coloured formazan, in cell work by metabolically active cells.

Another assay has as its system β-amyloid 1–40. In words: β-amyloid 1–40 aggregation, Thioflavin T fluorescence. The format is biochemical. The conditions noted are these: 100 μM, 72 h incubation. As for the experimental part:
The effect of the studied compounds on the aggregation of β-amyloid (1–40/1–42) was analyzed using the method of recording Thioflavin T fluorescence (10 µM) for 72 h at 37 °C. The fluorescence signal was measured using a multifunctional flatbed analyzer, the Cytation ™ 3 (BioTek Instruments, Inc., Winooski, VT, USA), at λex = 450 nm, λem = 480 nm.
The effect of hydroxamic acids on the stage of aggregation of the pathological β-amyloid peptide was investigated for 72 h using two model systems—fragments Aβ1–40 and Aβ1–42. The fluorophore Thioflavin T was used as an indicator of the ongoing fibrillation process, the interaction of which with proteins in the state of amyloid fibrils leads to an increase in the fluorescence signal.

Another assay concerns the target T1, HDAC6 (Homo sapiens, UniProt Q9UBN7).
T1 construct: purchased Enzo Life Sciences (Enzo Biochem, New York, NY, USA)
T1 sequence (Q9UBN7 1-1215): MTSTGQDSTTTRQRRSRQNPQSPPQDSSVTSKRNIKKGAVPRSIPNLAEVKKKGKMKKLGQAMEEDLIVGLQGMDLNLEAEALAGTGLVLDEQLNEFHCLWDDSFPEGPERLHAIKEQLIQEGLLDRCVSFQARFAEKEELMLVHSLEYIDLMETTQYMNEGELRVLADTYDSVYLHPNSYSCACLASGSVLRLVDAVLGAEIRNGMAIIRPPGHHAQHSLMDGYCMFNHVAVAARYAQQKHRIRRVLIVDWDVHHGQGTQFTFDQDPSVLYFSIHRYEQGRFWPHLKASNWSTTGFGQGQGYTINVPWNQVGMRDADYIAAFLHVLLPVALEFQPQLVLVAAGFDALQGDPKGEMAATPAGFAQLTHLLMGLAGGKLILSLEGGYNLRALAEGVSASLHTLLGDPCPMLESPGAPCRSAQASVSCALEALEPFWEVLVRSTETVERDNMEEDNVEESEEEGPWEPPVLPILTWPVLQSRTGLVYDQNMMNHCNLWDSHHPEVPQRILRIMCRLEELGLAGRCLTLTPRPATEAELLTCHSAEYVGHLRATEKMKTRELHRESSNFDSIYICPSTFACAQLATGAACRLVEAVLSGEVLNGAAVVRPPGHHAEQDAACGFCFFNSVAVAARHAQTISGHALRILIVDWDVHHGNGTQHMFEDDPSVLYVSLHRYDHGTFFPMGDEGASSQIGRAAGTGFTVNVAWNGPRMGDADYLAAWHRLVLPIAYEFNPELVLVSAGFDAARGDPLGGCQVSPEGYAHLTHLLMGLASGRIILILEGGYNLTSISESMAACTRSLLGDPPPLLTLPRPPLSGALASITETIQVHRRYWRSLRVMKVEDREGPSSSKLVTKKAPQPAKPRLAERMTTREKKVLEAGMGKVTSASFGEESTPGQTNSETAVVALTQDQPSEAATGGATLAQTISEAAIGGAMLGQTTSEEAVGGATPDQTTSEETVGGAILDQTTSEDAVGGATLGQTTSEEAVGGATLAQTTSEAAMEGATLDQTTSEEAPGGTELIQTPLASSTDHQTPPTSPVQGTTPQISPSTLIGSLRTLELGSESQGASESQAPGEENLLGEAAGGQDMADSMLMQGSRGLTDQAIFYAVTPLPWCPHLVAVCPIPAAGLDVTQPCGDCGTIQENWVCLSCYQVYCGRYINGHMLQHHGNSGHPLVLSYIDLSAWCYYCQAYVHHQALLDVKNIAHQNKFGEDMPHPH
In words: HDAC6 enzyme activity, FLUOR DE LYS fluorometric kit. It counts as biochemical. The conditions noted are these: mean ± SEM; read-out: IC50 HDAC6 Inhibitory Activity.

The values below come from PMC8623418, “Novel Multitarget Hydroxamic Acids with a Natural Origin CAP Group against Alzheimer’s Disease: Synthesis, Docking and Biological Evaluation” (Pharmaceutics, 2021).

`O=C(CCCCCCC(=O)NC1C2CC3CC(C2)CC1C3)NO` (stereo not shown) [compound 15, N^1-(Adamant-2-yl)-N^8-Hydroxyoctanediamide]: the 50% inhibitory concentration (IC50) in the assay on HEK 293 cells was above 100 µM; with SH-SY5Y cells, 47.6 ± 7.19 µM; on HDAC6, 0.96 ± 0.01 µM. For the same molecule, in assay [1], the “% of Activity, Antiradical Activity” value came out at 19.70 ± 1.34%. The “Effect on β-amyloid 1–40 aggregation” value with β-amyloid 1–40 is on record as “noticeable fibrillation inhibition”.

Take `O=C(/C=C/c1ccc(C(=O)NO)cc1)NC1C2CC3CC(C2)CC1C3` (stereo not shown) [compound 25, 4-((E)-3-((-Adamantan-2-yl)amino)-3-Oxoprop-1-en-1-yl)-N-Hydroxybenzamide]: the figures for the IC50 with HEK 293 cells, in the assay with SH-SY5Y cells and on HDAC6 were above 100 µM, 59.51 ± 0.42 µM and 6.52 ± 0.4 µM, respectively. The “% of Activity, Antiradical Activity” value in assay [1] is 43.34 ± 1.42%. Further, in the assay on β-amyloid 1–40, the “Effect on β-amyloid 1–40 aggregation” value was “noticeable fibrillation inhibition”.

As a reminder, the IC50 is the concentration at which inhibition is half-maximal.
